The values that follow are results of earlier work, collected in patent US11648207B1, “Extended release pharmaceutical composition of Clozapine” (priority 2021, dated 2023).

For series [1] the following is noted: in vivo.

SMILES strings stand for the structures.

As to `CN1CCN(C2=Nc3cc(Cl)ccc3Nc3ccccc32)CC1` [Clozapine, 8-chloro-11-(4-methyl-1-piperazinyl)-5H-dibenzo[b,e][1,4]diazepine], the solubility in water result is given as “very slightly soluble in water”. The mean terminal half-life in series [1] is 12 h.
